# “And” between values parts separate entries of the source, which are not always exact repeats. Equal values may be shown once.
# Tests used:
# cells = assay: Immunosuppressive activity or other toxicity to cells; format: cell-based; conditions: in experiments to date
# [1] = test system: primary murine bone marrow cells expressing the F36Vmpl fusion protein; assay: Response of marrow cells expressing F36Vmpl (MFM vector) to AP20187; format: cell-based; conditions: compared with FK1012 (data not shown)
# Excerpt: A MSCVneo-based retroviral vector encoding a fusion protein identical to F1mpl except for the presence of the F36V mutation was built and tested. This vector, MFM (FIG. 4), has been used to derive a genetically stable, high titer ecotropic producer cell line using the methods described in Example 5.
# [2] = test system: hematopoietic cell subsets in the spleen; assay: In vivo selection with MFM vector: flow cytometry of hematopoietic cell subsets in the spleen; design: species or system B6D2F1 mice; TER119 (erythroid) cells in the spleen / CD11b (myeloid) cells in the spleen / CD41 (megakaryocytic) cells in the spleen / CD3 (T-lymphoid) cells in the spleen / B220 (B-lymphoid) cells in the spleen: unit not given here
# Method: (§1) Marrow cells from B6D2F1 mice were transduced as follows: fluorouracil, 150 mg/kg, was injected intraperitoneally into female B6D2F1 mice. Forty-eight hours later, marrow cells were harvested and cultured for 48 hours in DMEM containing 16% fetal calf serum, 5% IL-3 conditioned medium, 100 ng/ml recombinant IL-6, and 50 ng/ml recombinant murine stem cell factor in a 37° C., 5% CO2 incubator. After 48 hours of prestimulation, cells were transferred onto irradiated (1500 cGy) producer cells and cocultivated using identical growth conditions except for the addition of polybrene (8 μg per ml). The producer cells generate retroviral particles containing the MFM vector that are able to infect the bone marrow cells. Therefore, the MFM retrovirus is introduced into the bone marrow cells during the period of cocultivation. Marrow cells were harvested after 48 hours of cocultivation and 8×10^6 cells were injected into each of 10 lethally irradiated (1050 cGy) B6D2F1 mice. Immediately following transplantation, five mice received intraperitoneal injections of AP20187 daily at a dose of 2 mg/kg/day for forty consecutive days. Five control mice received daily injections of the drug diluent (see below) without AP20187.
# (§2) AP20187 was prepared as follows: Drug was solubilized in ethanol, then PEG 400 was added. Finally, a mixture of water and Tween 80 was added to achieve final concentrations of ethanol of 4%, PEG400 10% and Tween 1.4%.
# To characterize the types of cells expanding in response to AP20187, flow cytometry was performed using antibodies directed against myeloid (CD11b), erythroid (TER119), megakaryocytic (CD41), B-lymphoid (B-220) and T-lymphoid (CD3) cells.
# [3] = test system: genetically modified progenitor cells in the femur; assay: In vivo selection with MFM vector: G418 resistant colonies in the femur (bone marrow aspirates); design: species or system B6D2F1 mice
# Method: as §1, §2
# The presence of the neo gene in the MFM vector allows the frequency of genetically modified progenitor cells to be determined by performing clonogenic assays either in the presence or absence of G418. After 32 days of drug administration, bone marrow aspirates were performed and the frequency of clonogenic progenitor cells was determined. Results are shown as follows:
# Sufficient numbers of bone marrow cells were obtained on the aspirates of one control and one drug treated mouse (numbers 191 and 195, respectively) to permit Southern analysis.
# [4] = test system: genetically modified progenitor cells in the spleen; assay: In vivo selection with MFM vector: G418 resistant colonies in the spleen; design: species or system B6D2F1 mice; conditions: after 40 days
# Method: as §1, §2
# (§3) After 40 days of drug administration, splenectomies were performed; spleens were weighed and spleen cells were tested in clonogenic assays to determine the frequency of genetically modified progenitor cells.
# [5] = test system: MH cells expressing chimeric receptors; assay: DNA synthesis (BrdU incorporation) in MH cells expressing FKBP chimeric receptors; format: cell-based, monkey (Macaca fascicularis); conditions: serum-starved MH cells, 3 days after AP20187 addition; compared with nonspecific induction by AP20187 alone
# Method: FIG. 5. DNA synthesis in MH cells expressing FKBP chimeric receptors after stimulation with AP20187. 5×10^4 MH cells were plated per well (24 well plate) in the presence of FCS. 24 hours after retrovirus infection, culture medium was replaced by serum-free medium and cells were starved for 6 days. At this time point AP20187 was added to one set of cells and BrdU incorporation was measured three days after induction. BrdU labeled cells were counted in four independent areas for each sample (N=3) and expressed as the percentage of BrdU (+) cells. The (+) and (−) symbols after the chimeric gene designations indicates the presence and absence of AP20187, respectively. […]
# To test the proliferation properties of MH cells, cellular DNA replication based on incorporation of BrdU was analyzed. […] After this, BrdU labeled DNA was detected in cell nuclei by immuno-histochemistry with BrdU-specific antibodies.
# Retroviruse vectors expressing the chimeric receptors provided in TABLE 9 were prepared as a means for gene transfer into hepatocytes. […] Next, the percentage of MH cells grown in the presence of FCS and HGF that can be transduced by an amphotropic β-Gal virus after an incubation of 5 hours at an MOI of 1 cfu per cell was determined. […] At this time point AP20187 was added to one set of cells and BrdU incorporation was measured three days after induction. […]
# endogenous FKBP12 = endogenous FKBP12 (Homo sapiens, UniProt P62942); assay: Binding to endogenous FKBP12
# spleen = assay: In vivo selection with MFM vector: spleen weight; design: species or system B6D2F1 mice; conditions: after 40 days
# Method: as §1, §2, §3
# [6] = group mean, spleen, flow cytometry
# [7] = individual mice, flow cytometry, after 40 days
# [8] = individual mice, 2 mg/kg/day i.p., 2 mg/kg/day
# Sequence of endogenous FKBP12 (P62942 whole entry, species assumed): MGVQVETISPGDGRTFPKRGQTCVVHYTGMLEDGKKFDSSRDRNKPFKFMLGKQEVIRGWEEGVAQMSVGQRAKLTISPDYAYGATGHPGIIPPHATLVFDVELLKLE
smiles,measurement,setting,value
CC[C@H](C(=O)N1CCCC[C@H]1C(=O)O[C@H](CCc1ccc(OC)c(OC)c1)c1cccc(OCC(=O)NCC(CNC(=O)COc2cccc([C@@H](CCc3ccc(OC)c(OC)c3)OC(=O)[C@@H]3CCCCN3C(=O)[C@@H](CC)c3cc(OC)c(OC)c(OC)c3)c2)CN(C)C)c1)c1cc(OC)c(OC)c(OC)c1 [AP20187],immunosuppressive activity or other toxicity to cells,cells,no immunosuppressive activity or other toxicity to cells
same,proliferative and differentiative responses,[1],indistinguishable from those we have observed using FK1012
same,"B220, mean (standard deviation)",[2]; [6],29.2 (5.1)
same,"CD3, mean (standard deviation)",[2]; [6],12.2 (8.2)
same,"CD11b, mean (standard deviation)",[2]; [6],10.2 (2.5)
same,"CD41, mean (standard deviation)",[2]; [6],1.4 (1.1)
same,"TER119, mean (standard deviation)",[2]; [6],27.7 (8.1)
same,B220 (B-lymphoid) cells in the spleen,[2]; [7],31.6 and 24.5 and 23.0 and 33.2 and 33.8
same,CD3 (T-lymphoid) cells in the spleen,[2]; [7],24.4 and 8.4 and 4.8 and 6.5 and 16.8
same,CD11b (myeloid) cells in the spleen,[2]; [7],9.5 and 7.8 and 12.8 and 8.2 and 13.0
same,CD41 (megakaryocytic) cells in the spleen,[2]; [7],0.7 and 0.5 and 1.1 and 3.3 and 1.4
same,TER119 (erythroid) cells in the spleen,[2]; [7],21.0 and 28.2 and 40.8 and 27.4 and 21.1
same,change in hematopoietic cell subsets in the spleen,[2]; versus control group,increase in myeloid (CD11b-positive) and erythroid (TER119-positive) cells in the spleen
same,mean number of G418 resistant colony forming cells in the femur relative to control group,"[3]; after 32 days, did not achieve statistical significance",approximately 2 fold
same,"Percentage of G418 Resistant Colonies (femur), Mean","[3]; group mean (+/−), 2 mg/kg/day i.p., after 32 days",20.9 (+/−13.3) %
same,Percentage of G418 Resistant Colonies (femur),"[3]; individual mice, 2 mg/kg/day i.p., after 32 days of drug administration, 2 mg/kg/day",39.3% and 14.7% and 17.7% and 28.1% and 4.6%
same,proviral signal by Southern analysis of bone marrow aspirates,[3]; one drug treated mouse (195) versus one control (191),detectable only in the mouse that had received AP20187
same,"G418 Resistant (spleen colonies), Mean",[4]; group mean (+/−),9 (+/−8.7%)
same,G418 Resistant (spleen colonies),[4]; [8],4.1% and 5.2% and 6.4% and 24.5% and 4.8%
same,percentage of genetically modified progenitor cells in the spleen,[4]; versus control group,increased percentage of genetically modified progenitor cells in the spleen that did not achieve statistical significance
same,effect on DNA proliferation (BrdU incorporation),[5],clear effect on DNA proliferation in MH expressing chimeric receptors
same,binding to endogenous FKBP12,endogenous FKBP12,does not bind to endogenous FKBP12
same,"Spleen Weight, Mean",spleen; group mean (+/−),208.9 (+/−43.5) mg
same,Spleen Weight,spleen; [8],200 mg and 190 mg and 279 mg and 213 mg and 162 mg
same,spleen size,spleen; versus control group,significant increase in spleen size
same,in vivo half life,In vivo half life,9 h

# Source: patent US7754202B1, “Methods of controlling cell differentiation and growth using a fusion protein and a drug” (Stanford University, priority 1998, dated 2010)
